Data taken from patent publication US20070066682A1, “Arylalkylamine vanadium (V) salts for the treatment and/or prevention of Diabetes mellitus” (priority 2005, published 2007).
“Also recorded” adds a separate entry of the source.

Columns and labels:
[1] = system: insulin receptor; assay: Tyrosine phosphorylation of insulin receptor in isolated rat adipocytes; type: cell-based; details: 25 μM
Protocol: (§1) Isolated fat cells were disrupted for total membrane preparation by hypo-osmotic lysis in a 20 mM HES buffer and an antiprotease and antiphosphatase cocktail as reported by Abella et al. (2003, Diabetes 52: 1004-1013). Protein concentrations were determined by the Bradford method (Bradford, 1976, Anal. Biochem. 72: 248-254) with gamma-globulin as protein concentration standard. Immunoprecipitation and immunoblot assays were performed as previously described by Abella et al. (2004, Id.) with the use of a monoclonal antiphosphotyrosine antibody for the immunoprecipitation and an anti-insulin receptor antibody for immunoblotting, respectively. SDS-polyacrylamide gel electrophoresis was performed on membrane proteins following conventional procedures. Proteins were transferred to Immobilon and immunoblotting was performed as reported by Castello et al. (1994, J. Biol. Chem. 269: 5905-5912).
The mechanism of action of B6V10 was investigated in isolated rat adipocytes. Adipose cells from Wistar rats were incubated for different times in the presence of 25 μM hexaquis(benzylammonium) decavanadate (B6V10). […] Subsequently, 2-deoxyglucose uptake (results shown in FIG. 7A), tyrosine phosphorylation of insulin receptor (FIG. 7B), phospho-Thr^308-protein kinase B (FIG. 7C) and phospho-Ser^473-protein kinase B (FIG. 7D) was measured. […]

[2] = system: streptozotocin-induced diabetic rat with undetectable circulating insulin; assay: Subcutaneous treatment of streptozotocin (100 mg/kg) diabetic rats with undetectable circulating insulin; type: in vivo
Protocol: (§2) Male Wistar rats weighting 180-220 g were purchased from Harlan (Interfauna Ibèrica S.A., Spain). Diabetes was induced by a single intraperitoneal injection of a freshly prepared solution of streptozotocin (in some studies the dose was 45 mg/kg body weight and in some others 100 mg/kg body weight dissolved in 50 mM citrate buffer, pH 4.5). Only diabetic animals with glycemia above 300 mg/dl were used. The animals were housed in animal quarters at 22° C., with a 12 h light/12 h dark cycle and were fed ad libitum. All procedures used were approved by the animal ethical committee of the University of Barcelona, Spain. Male mice C57 BL/Ks bearing the db/db mutation (Jackson Laboratories, Bar Harbor, Me.) were purchased from Harlan France (Gannat, France). C57BL/6J male mice were assigned for 16 weeks to very high-fat diet containing (in kcal): 72% from fat, 28% from proteins and <1% from carbohydrates (Burcelin et al., 2002, Am. J. Physiol. Endocrinol. Metab 282: E834-E842).
(§3) In glucose tolerance tests and in chronic treatments, circulating glucose concentrations were determined by a rapid glucose analyser (Accutrend® Sensor Comfort, Roche, Basel. Switzerland). Plasma insulin (IRI) concentration was determined by ELISA method using a kit obtained from Crystal Chem Inc. (Downers Grove, Ill.). Plasma triglycerides (Biosystems, Barcelona, Spain) and NEFAS (Wako Chemicals, Neuss, Germany) were determined with standard […] methods.
To this end, rats were made diabetic by the injection of a large dose of streptozotocin (100 mg/kg) that eliminates β-pancreatic insulin content. […] These streptozotocin-induced diabetic rats were subcutaneously treated with B6V10 (2.5 μmol/kg) (solid squares, FIG. 9A) delivered by osmotic minipumps or left untreated (solid circles, FIG. 9A). Sham-operated nondiabetic rats were also untreated (solid triangles, FIG. 9A).
The concentration of circulating glucose under these conditions was also assayed. After 28 days of treating diabetic rats with hexaquis(benzylammonium) decavanadate (2.5 μmol/kg) (wide striped bars, FIG. 9B), or with decavanadate (close striped bars, FIG. 9B) delivered by osmotic minipumps, plasma insulin and glucose were measured. Untreated diabetic (solid bars, FIG. 9B) or nondiabetic rats (open bars, FIG. 9B) were similarly assayed as controls.

[3] = Tolerability in treated animals; type: in vivo
[4] = system: diabetic rats; assay: Plasma free fatty acids, triglycerides and cholesterol of diabetic rats; type: in vivo, rat
Protocol: as §3

[5] = system: protein kinase B; assay: Protein kinase B phosphorylation in isolated rat adipocytes; type: cell-based
Protocol: as §1
The mechanism of action of B6V10 was investigated in isolated rat adipocytes. Adipose cells from Wistar rats were incubated for different times in the presence of 25 μM hexaquis(benzylammonium) decavanadate (B6V10). Cells were also incubated in the presence of insulin (100 nM, 45 min), decavanadate (25 μM, 45 min) or semicarbazide (1 mM, 45 min). Subsequently, 2-deoxyglucose uptake (results shown in FIG. 7A), tyrosine phosphorylation of insulin receptor (FIG. 7B), phospho-Thr^308-protein kinase B (FIG. 7C) and phospho-Ser^473-protein kinase B (FIG. 7D) was measured. […] The phosphorylation of protein kinase B induced by B6V10 was parallel to activation of glucose transport (FIG. 7C and 7D).
(§4) The effects of incubation with semicarbazide or phosphatidylinositol 3-kinase inhibitors were also investigated. Adipose cells were incubated with B6V10 (25 μM, 45 min) in the absence or presence of wortmannin (2 μM, 45 min), LY294002 (10 μM, 45 min) or semicarbazide (1 mM, 45 min) and thereafter 2-deoxyglucose uptake was determined during 5 min.

[6] = system: adipocyte lipolysis; assay: Adipocyte lipolysis; type: cell-based
[7] = system: isolated rat adipocytes; assay: Glucose transport (2-deoxyglucose uptake) in isolated rat adipocytes; type: cell-based; details: for stimulation of glucose transport in the presence of semicarbazide: 1 mM semicarbazide; for stimulation of glucose transport in the presence of semicarbazide / stimulation of glucose transport (2-DG uptake): dihydrate; for stimulation of glucose transport (2-DG uptake): 45 min incubation
Protocol: In order to determine whether salts formed by vanadate and benzylamine could produce an insulin mimetic effect, the effect of increasing concentrations of hexaquis(benzylammonium) decavanadate on glucose transport activity in isolated rat adipocytes was tested. […] In similar assays, the activity of hexaquis(benzylammonium) decavanadate, pentaquis(benzylammonium) decavanadate and tetraquis(benzylammonium) decavanadate on glucose transport activity in isolated rat adipocytes were analyzed.
To determine the possible insulin mimetic effect of certain vanadium arylalkylamines, the capacity of these compounds to enhance glucose transport in isolated rat adipocytes was tested. Adipose cells from Wistar rats were incubated for 45 minutes in basal conditions (Basal) or in the presence of 100 nM insulin (Ins), and different concentrations of. hexaquis(benzylammonium) decavanadate (B6V10) in the absence or in the presence of 1 mM semicarbazide (SCZ). Subsequently, 2-DG transport was measured over a 5 min. interval.
The effects of the three tested compounds (B6V10, B5V10 and B4V10) were compared. Adipose cells from Wistar rats were incubated for 45 minutes in basal conditions (Basal) or in the presence of 100 nM insulin (Ins), and different concentrations of. decavanadate (V10), hexaquis(benzylammonium) decavanadate (B6V10), pentaquis(benzylammonium) decavanadate (B5V10) or tetraquis(benzylammonium) decavanadate (B4V10) in the absence or in the presence of 1 mM semicarbazide (SCZ). 2-DG transport was measured over 5 min. intervals. […]
as §4

[8] = system: db/db mice; assay: Chronic treatment of obese diabetic db/db mice, glycemia; type: in vivo, mouse
Protocol: as §2

[9] = isolated rat adipocytes, listed as hexaquis(benzylammonium) decavanadate
[10] = isolated rat adipocytes, FIG. 1

With “hexaquis(benzylammonium) decavanadate (V) dihydrate [Entry B6V10]” the “tyrosine phosphorylation of insulin receptors” value [1] was “undetectable”, the “glycemia in diabetic rats with undetectable insulin” value ([2]; 2.5 μmol/kg subcutaneous minipumps, STZ 100 mg/kg, dihydrate) was “markedly effective in lowering hyperglycemia; also recorded: reducing glycemia; also recorded: significant differences between the B6V10 and the untreated groups; also recorded: antidiabetic effects” and the “plasma glucose and insulin after 28 days of treatment” value ([2]; 2.5 μmol/kg, osmotic minipumps, STZ 100 mg/kg) was “plasma glucose was reduced even without any observable change in the amount of insulin”. The “body weight or organ weights” value ([2]; chronic treatment with therapeutic doses) was “did not affect body weight or organ weights”, the toxicological side effects ([3]; at the doses used) was “did not show toxicological side effects” and the hypoglycemia ([3]; treated animals) was “did not cause hypoglycemia”. The “plasma concentrations of free fatty acids, triglycerides and cholesterol” value [4] was “normalized the plasma concentrations of free fatty acids, triglycerides and cholesterol”, the “protein kinase B phosphorylation” value ([5]; 25 μM, rat adipocytes) was “rapidly stimulated protein kinase B” and the “time at which protein kinase B phosphorylation was detectable” value ([5]; 25 μM, rat adipocytes) was ≤ 2.5 min. For the same substance, the “protein kinase B phosphorylation in the presence of semicarbazide” value ([5]; B6V10 25 μM, semicarbazide 1 mM, 45 min) was “blocked by semicarbazide”, the adipocyte lipolysis [6] was “inhibited adipocyte lipolysis” and the “stimulation of glucose transport at 25 μM compared with the combination of benzylamine and vanadate” value ([7]; 25 μM vs 100 μM benzylamine and 100 μM vanadate, rat adipocytes) was “greater stimulation of glucose transport than the combination of 100 μM benzylamine and 100 μM vanadate”. The “stimulation of glucose transport in the presence of semicarbazide” value ([7]; isolated rat adipocytes) was “completely blocked by semicarbazide; also recorded: blocked in the presence of semicarbazide”, the “stimulation of glucose transport in the presence of semicarbazide” value [7, 9] was “completely blocked by semicarbazide; also recorded: this effect was inhibited” and the “stimulation of glucose transport (2-DG uptake)” value ([7]; isolated rat adipocytes) was “stimulated glucose transport in rat adipocytes in a concentration-dependent manner”. For the same substance, the “stimulation of glucose transport (2-DG uptake)” value [7, 9] was “pronounced stimulation on glucose transport”, the “concentration from which stimulation of glucose transport was perceptible” value [7, 10] was ≥ 0.5 µM and the “concentration of maximal effect on glucose transport” value [7, 10] was 2.5 µM. The EC50 ([7]; isolated rat adipocytes, FIG. 1, read-out: concentration of semi-maximal effect on glucose transport) was > 1000 nM, the “maximum effect on glucose transport compared with benzylamine and vanadate in combination” value ([7]; isolated rat adipocytes, combination 100 μM sodium vanadate and 100 μM benzylamine (FIG. 1)) was “greater than that produced by the presence of benzylamine and vanadate in combination” and the “maximal effect on glucose transport as % of the maximal stimulation caused by insulin” value ([7]; rat adipocytes, 100 nM insulin) was 85%. For the same substance, the glycemia [8] was “ameliorated glycemia”.
